Results on 9 molecules are retold here after PubChem BioAssay (NCI).

Structures are written as SMILES. Several values for one entry are separate records, joined by “and”; a condition that tells them apart may be missing. Equal values may be shown once.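 These data come from cells grown in 96-well plates and exposed to compound for 48 hours at five concentrations. GI50 marks 50% less growth. TGI is the concentration that stops growth completely.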

Test in all cases: NCI anticancer screen, dose series, 48 h
For test [1], the system named is TK-10 renal.
Test [2] concerns SK-MEL-28 melanoma.
Test [3] relates to RXF 393 renal.
Test [4] deals with ACHN renal.
The subject of test [5] is HCT-116 colon.
Test [6] deals with MALME-3M melanoma.
For test [7], the system named is DU-145 prostate.
For test [8], the system named is HL-60(TB) leukemia.
Test [9] concerns A498 renal.
The test system of test [10] is COLO 205 colon.

Regarding `O=c1[nH]c2ccc(O)cc2o1`, the TGI in test [1], in [2], in test [3], in test [4], in test [5] and in test [6] was more than 100 µM in each case. Also, the TGI in [7], in test [8], in test [9] and in [10] was more than 100 µM in each case.

Consider `COc1ccc(-c2nnc(N3CCN(C(=O)CN4CCN(c5ccccc5)CC4)CC3)nc2-c2ccc(OC)cc2)cc1`, for which the GI50 in [1] was 3.52 µM; in [2], 14.3 µM; in test [3] it was 3.36 µM; in test [4] it was 3.92 µM; in test [5], 3.19 µM; in test [6], 2.29 µM. Moreover, the GI50 was 13.4 µM in [7], 1.89 µM in test [8], 3 µM in test [9] and 2.57 µM in test [10]. In addition, the TGI in test [1] was 47.6 µM; in test [2], more than 100 µM; in [3] it was 22.4 µM; in test [4], 21.7 µM; in test [5], more than 100 µM; in test [6], more than 100 µM. The TGI in [7] was more than 100 µM; in [8], 5.56 µM; in [9], 19.1 µM; in test [10] it was 57.2 µM.

With `COc1ccc(C(O)(CCC(C)C)C(CN2CCOCC2)c2ccc(Cl)cc2)cc1` (stereo not drawn), the GI50 in test [1] is 16.7 µM; in test [2] it was 15.7 µM; in test [3], 6.49 µM; in test [4], 14.4 µM; in test [5], 4.68 µM; in test [6], 19.1 µM. The GI50 in test [7] is 15.4 µM; in test [8] it was 14.8 µM; in [9], 10.9 µM; in test [10] it was 12.7 µM. Also, the TGI stood at 31.3 µM in test [1]; 34.4 µM in test [2]; 21.7 µM in test [3]; 27.9 µM in test [4]; 19.1 µM in [5]; 39.5 µM in [6]. Also, the TGI in test [7] worked out at 29.5 µM; in test [8], 39.1 µM; in test [9], 23.4 µM; in test [10] it was 30.9 µM.

Turning to `C/C(=N\NC(=S)N1CCCCCC1)c1ccccn1`, the TGI in test [1] was 8.56 µM and 7.56 µM; in test [2], 0.295 µM; in [3], 2.05 µM and 0.658 µM; in test [4], 5.45 µM and 2.73 µM; in test [5], 3.16 µM and 4.28 µM; in test [6], 1.17 µM and 1.72 µM. The TGI is 6.29 µM and 3.25 µM in test [7]; 0.185 µM in test [8]; 2.59 µM and 1.57 µM in test [9]; 0.0286 µM in [10]. Further, the GI50 in test [3] is 0.117 µM; in test [6], 0.0966 µM; in [7], 0.408 µM; in test [9], 0.163 µM.

In the case of `CN(C)CCSc1cc(-c2ccccc2)c2ccccc2n1`, the TGI came out at 19.4 µM in test [1]; 17.9 µM in test [2]; 15.8 µM in test [3]; 26.7 µM in [4]; 20.4 µM in [5]; 26 µM in test [6]. The TGI was 28.7 µM in [7], more than 100 µM in test [8], 33 µM in test [9] and 4.85 µM in test [10].

As for `CC(C)OC(=O)[C@H](C)NP(=O)(OC[C@H]1O[C@@H](n2ccc(=O)[nH]c2=O)[C@](C)(F)[C@@H]1O)Oc1ccccc1` (stereo partly drawn), the GI50 in test [1], in test [2], in [3], in [4], in test [5] and in test [6] was more than 100 µM throughout. The GI50 in [7], in test [8] and in test [9] was more than 100 µM throughout. The TGI in test [1], in [2], in [3], in test [4], in test [5] and in test [6] was more than 100 µM throughout. Moreover, the TGI in [7], in [8] and in [9] was more than 100 µM in each case.

As for `COc1ccc(C2=C(c3ccc(OC)cc3)C(=O)N3CCCC3C2)cc1` (stereo not drawn), the GI50 in test [1] is 22.8 µM; in test [2] it was 54.6 µM; in test [3], 17.7 µM; in test [4], 15 µM; in test [5], 2.96 µM; in test [6], 52.6 µM. For the same molecule, the GI50 in [7] was 13.5 µM; in test [8] it was 4.36 µM; in test [9], 45.9 µM; in test [10], 7.43 µM. For the same molecule, the TGI in [1] is more than 100 µM; in test [2] it was more than 100 µM; in test [3], more than 83.2 µM; in test [4], more than 100 µM; in [5] it was 32.8 µM; in [6], more than 100 µM. The TGI is more than 100 µM in [7], 28.4 µM in test [8], more than 100 µM in [9] and more than 100 µM in test [10].

With `COC(=O)c1ccc(-c2c(C#N)[n+](=O)c3cc(Cl)c(Cl)cc3n2[O-])cc1`, the GI50 was 33.6 µM in test [1]; 17.2 µM in test [2]; 12.1 µM in test [3]; 17.2 µM in test [4]; 13.3 µM in [5]; 20 µM in [6]. In addition, the GI50 is 20.2 µM in test [7], 38.6 µM in [9] and 22 µM in test [10]. Also, the TGI in [1] is 95.1 µM; in [2], 34.8 µM; in [3], 28 µM; in [4], 35.2 µM; in test [5], more than 100 µM; in test [6], 44.3 µM. Further, the TGI was 40.9 µM in test [7], more than 100 µM in test [9] and 52.1 µM in [10].

For the molecule `O=C1c2cc3c(cc2-c2c1c1cc(Cl)c(Cl)cc1c(=O)n2C[C@H](O)CO)OCO3`, the GI50 in test [1] is 0.0578 µM; in [2] it was 0.0429 µM; in test [3] it was less than 0.01 µM; in test [4] it was less than 0.01 µM; in [6], 0.0154 µM; in [7], less than 0.01 µM. Moreover, the GI50 in test [8], in test [9] and in test [10] was less than 0.01 µM throughout. The TGI stood at 0.934 µM in [1]; 8.62 µM in test [2]; 0.0378 µM in test [3]; 0.0128 µM in [4]; 0.156 µM in test [6]; 1.8 µM in [7]. In addition, the TGI in test [8] turned out to be 10.5 µM; in [9], 0.032 µM; in test [10], 0.291 µM.
